Measured values as given in patent US20210179600A1, “OXAZOLE AND THIAZOLE DERIVATIVES AS INHIBITORS OF ASK1” (Hepagene Therapeutics (HK) Limited, priority 2017, published 2021).

molecular target: T1, Recombinant human ASK1 kinase (Homo sapiens, UniProt Q99683); experiment: ASK1 kinase HTRF assay (KinEASE-STK); assay type: biochemical; settings: HTRF detection; 3 nM ASK1 kinase, 1 uM STK-substrate-biotin
T1 construct: purchased Invitrogen Inc
T1 sequence (Q99683 1-1374): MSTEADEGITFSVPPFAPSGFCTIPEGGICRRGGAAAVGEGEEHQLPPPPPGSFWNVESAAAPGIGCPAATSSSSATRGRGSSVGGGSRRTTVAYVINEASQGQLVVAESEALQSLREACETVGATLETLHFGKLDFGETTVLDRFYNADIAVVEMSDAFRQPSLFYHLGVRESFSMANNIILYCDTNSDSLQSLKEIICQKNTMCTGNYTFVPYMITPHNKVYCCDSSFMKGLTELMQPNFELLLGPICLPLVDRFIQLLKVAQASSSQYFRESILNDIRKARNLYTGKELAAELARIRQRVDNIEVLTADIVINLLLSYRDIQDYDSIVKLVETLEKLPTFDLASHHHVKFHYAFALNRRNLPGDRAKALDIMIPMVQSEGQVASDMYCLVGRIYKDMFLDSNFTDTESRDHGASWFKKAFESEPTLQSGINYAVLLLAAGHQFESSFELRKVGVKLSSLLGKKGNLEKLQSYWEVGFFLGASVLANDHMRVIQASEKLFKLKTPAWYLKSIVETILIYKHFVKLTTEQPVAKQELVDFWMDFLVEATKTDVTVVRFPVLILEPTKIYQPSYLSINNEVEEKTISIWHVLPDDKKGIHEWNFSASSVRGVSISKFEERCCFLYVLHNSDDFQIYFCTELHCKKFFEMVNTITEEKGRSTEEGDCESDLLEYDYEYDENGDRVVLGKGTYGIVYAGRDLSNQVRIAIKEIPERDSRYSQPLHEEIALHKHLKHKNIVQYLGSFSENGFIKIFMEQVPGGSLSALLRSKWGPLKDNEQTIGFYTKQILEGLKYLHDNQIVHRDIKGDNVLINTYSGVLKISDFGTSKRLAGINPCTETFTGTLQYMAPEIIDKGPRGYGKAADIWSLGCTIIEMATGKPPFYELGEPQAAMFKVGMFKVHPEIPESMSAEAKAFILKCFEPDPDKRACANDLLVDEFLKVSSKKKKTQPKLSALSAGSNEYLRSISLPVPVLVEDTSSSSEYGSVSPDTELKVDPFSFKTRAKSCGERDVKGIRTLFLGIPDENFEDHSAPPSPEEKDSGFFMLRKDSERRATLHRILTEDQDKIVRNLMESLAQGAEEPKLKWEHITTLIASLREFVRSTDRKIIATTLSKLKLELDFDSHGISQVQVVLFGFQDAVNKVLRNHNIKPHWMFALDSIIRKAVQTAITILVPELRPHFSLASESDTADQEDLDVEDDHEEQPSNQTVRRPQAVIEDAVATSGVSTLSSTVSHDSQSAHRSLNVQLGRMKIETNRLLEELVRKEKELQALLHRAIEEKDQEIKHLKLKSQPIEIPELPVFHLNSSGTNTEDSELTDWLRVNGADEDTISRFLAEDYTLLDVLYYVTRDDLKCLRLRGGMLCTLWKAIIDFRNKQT
Method: Reagents: Recombinant human ASK1 kinase was from Invitrogen Inc. HTRF KinEASE™-STK S3 kit was obtained from Cisbio (Bedford, Mass.). All other reagents were of the highest grade commercially available.
Assay: The assay measures the phosphorylation level of a biotinylatd peptide substrate by the ASK1 kinase using HTRF detection. ASK1 kinase assay is based on HTRF KinEASE™-STK manual from Cisbio. Test compound, 1 uM STK-substrate-biotin, 3 nM of ASK1 kinase are incubated with 1*Kinase buffer with 5 mM MgCl2 and 1 mM DTT. 250 nM Sa-XL 665(4*) and STK-antibody-Cryptate work solution are added to stop the reaction and phosphorylated peptide substrate is detected using Envision 2104 Multilabeled reader from PerkinElmer. The fluorescence is measured at 615 nm (Cryptate) and 665 nm (XL665) and a ratio of 665 nm/615 nm is calculated for each well. The resulting TR-FRET level (a ratio of 665 nm/615 nm) is proportional to the phosphorylation level of substrate.

Compound | EC50 [µM]
Cc1ccc(-c2cnc(-c3cccc(-c4nncn4C(C)CO)n3)o2)c(F)c1 (centres unmarked) [Compound I-001, 2-(3-(6-(5-(2-Fluoro-4-methylphenyl)oxazol-2-yl)pyridin-2-yl)-4H-1,2,4-triazol-4-yl) propan-1-ol] | ≤ 0.05
CC(C)n1cnnc1-c1cccc(-c2ncc(-c3ccccc3)o2)n1 [Compound I-002, 2-(5-Phenyl-1,3-oxazol-2-yl)-6-[4-(propan-2-yl)-4H-1,2,4-triazol-3-yl] pyridine] | ≤ 0.05
Cc1ccc(-c2cnc(-c3cccc(-c4nncn4C(C)C)n3)s2)c(F)c1 [Compound I-003, 5-(2-Fluoro-4-methylphenyl)-2-(6-(4-isopropyl-4H-1,2,4-triazol-3-yl)pyridin-2-yl)thiazole] | 0.05 to 0.5
CC(CO)n1cnnc1-c1cccc(-c2ncc(-c3ccccc3)o2)n1 (centres unmarked) [Compound I-004, 2-(3-(6-(5-Phenyloxazol-2-yl)pyridin-2-yl)-4H-1,2,4-triazol-4-yl) propan-1-ol] | ≤ 0.05
CC(C)n1cnnc1-c1cccc(-c2ncc(-c3cccc(N4CCC(O)C4)c3)o2)n1 (centres unmarked) [Compound I-005, 1-[3-(2-[6-[4-(Propan-2-yl)-4H-1,2,4-triazol-3-yl]pyridin-2-yl]-1,3-oxazol-5-yl)phenyl]pyrrolidin-3-ol] | ≤ 0.05
CC(C)n1cnnc1-c1cccc(-c2ncc(-c3cccc(C(=O)Nc4ccccc4)c3)o2)n1 [Compound I-006, N-Phenyl-3-(2-[6-[4-(propan-2-yl)-4H-1,2,4-triazol-3-yl]pyridin-2-yl]-1,3-oxazol-5-yl)benzamide] | 0.05 to 0.5
CC(C)n1cnnc1-c1cccc(-c2ncc(-c3cccc(C(=O)O)c3)o2)n1 [Compound I-008, 3-(2-[6-[4-(Propan-2-yl)-4H-1,2,4-triazol-3-yl]pyridin-2-yl]-1,3-oxazol-5-yl)benzoic acid] | 0.05 to 0.5
CC(C)n1cnnc1-c1cccc(-c2ncc(-c3cccc(C(N)=O)c3)o2)n1 [Compound I-009, 3-(2-[6-[4-(Propan-2-yl)-4H-1,2,4-triazol-3-yl]pyridin-2-yl]-1,3-oxazol-5-yl)benzamide] | 0.05 to 0.5
CCN1CCN(c2cccc(-c3cnc(-c4cccc(-c5nncn5C(C)C)n4)o3)c2)CC1 [Compound I-010, 5-(3-(4-Ethylpiperazin-1-yl)phenyl)-2-(6-(4-isopropyl-4H-1,2,4-triazol-3-yl)pyridin-2-yl)oxazole] | ≤ 0.05
CC(=O)N1CCN(c2cccc(-c3cnc(-c4cccc(-c5nncn5C(C)C)n4)o3)c2)CC1 [Compound I-011, 1-(4-(3-(2-(6-(4-Isopropyl-4H-1,2,4-triazol-3-yl)pyridin-2-yl)oxazol-5-yl)phenyl)piperazin-1-yl)ethenone] | ≤ 0.05
CC(C)n1cnnc1-c1cccc(-c2ncc(-c3cccc(N4CCN(CCO)CC4)c3)o2)n1 [Compound I-012, 2-(4-(3-(2-(6-(4-Isopropyl-4H-1,2,4-triazol-3-yl)pyridin-2-yl)oxazol-5-yl)phenyl)piperazin-1-yl)ethanol] | ≤ 0.05
Cc1ccccc1-c1cnc(-c2cccc(-c3nncn3[C@H](C)CN)n2)o1 [Compound I-013, (R)-2-(3-(6-(5-o-Tolyloxazol-2-yl)pyridin-2-yl)-4H-1,2,4-triazol-4-yl)propan-1-amine] | 0.5 to 5
CC(C1CC1)n1cnnc1-c1cccc(-c2ncc(-c3ccccc3)o2)n1 (centres unmarked) [Compound I-015, 2-(6-(4-(1-Cyclopropylethyl)-4H-1,2,4-triazol-3-yl)pyridin-2-yl)-5-phenyloxazole] | ≤ 0.05
CC(C)n1cnnc1-c1cccc(-c2ncc(C3CCCCC3)o2)n1 [Compound I-016, 5-Cyclohexyl-2-(6-(4-isopropyl-4H-1,2,4-triazol-3-yl)pyridin-2-yl) oxazole] | 0.05 to 0.5
c1ccc(-c2cnc(-c3cccc(-c4nncn4C4CC4)n3)o2)cc1 [Compound I-017] | 0.05 to 0.5
C[C@H](CO)n1cnnc1-c1cccc(-c2ncc(-c3ccccc3)o2)n1 [Compound I-018] | ≤ 0.05
C[C@@H](CO)n1cnnc1-c1cccc(-c2ncc(-c3ccccc3)o2)n1 [Compound I-019] | 0.05 to 0.5
CC(C)n1cnnc1-c1cccc(-c2ncc(-c3ccncc3)o2)n1 [Compound I-021] | 0.05 to 0.5
Cc1ccccc1-c1cnc(-c2cccc(-c3nncn3C(C)C)n2)o1 [Compound I-024] | ≤ 0.05
Cc1ccccc1-c1cnc(-c2cccc(-c3nncn3[C@H](C)CO)n2)o1 [Compound I-025] | ≤ 0.05
CCC(C)n1cnnc1-c1cccc(-c2ncc(-c3ccccc3C)o2)n1 (centres unmarked) [Compound I-026] | 0.05 to 0.5
Cc1ccccc1-c1cnc(-c2cccc(-c3nncn3C(C)C(F)(F)F)n2)o1 (centres unmarked) [Compound I-027] | ≤ 0.05

Compound | EC50 [µM]
Cc1cccc(-c2cnc(-c3cccc(-c4nncn4C(C)C)n3)o2)c1 [Compound I-028] | 0.05 to 0.5
Cc1ccc(-c2cnc(-c3cccc(-c4nncn4C(C)C)n3)o2)cc1 [Compound I-029] | ≤ 0.05
Cc1ccc(-c2cnc(-c3cccc(-c4nncn4[C@H](C)CO)n3)o2)cc1 [Compound I-030] | ≤ 0.05
Cc1ccc(-c2cnc(-c3cccc(-c4nncn4C(C)C)n3)o2)c(C)c1 [Compound I-031] | ≤ 0.05
Cc1ccc(-c2cnc(-c3cccc(-c4nncn4[C@H](C)CO)n3)o2)c(C)c1 [Compound I-032] | ≤ 0.05
Cc1cc(C)c(-c2cnc(-c3cccc(-c4nncn4[C@H](C)CO)n3)o2)c(C)c1 [Compound I-033] | 0.05 to 0.5
CC(C)c1cccc(-c2cnc(-c3cccc(-c4nncn4C(C)C)n3)o2)c1 [Compound I-034] | 0.05 to 0.5
CC(C)c1ccc(-c2cnc(-c3cccc(-c4nncn4C(C)C)n3)o2)cc1 [Compound I-035] | 0.05 to 0.5
CCc1ccc(-c2cnc(-c3cccc(-c4nncn4C(C)C)n3)o2)cc1 [Compound I-036] | 0.05 to 0.5
CCc1cccc(-c2cnc(-c3cccc(-c4nncn4C(C)C)n3)o2)c1 [Compound I-037] | 0.05 to 0.5
CCc1ccccc1-c1cnc(-c2cccc(-c3nncn3C(C)C)n2)o1 [Compound I-038] | ≤ 0.05
CC(C)n1cnnc1-c1cccc(-c2ncc(-c3ccc(C4CC4)cc3)o2)n1 [Compound I-039] | 0.05 to 0.5
CC(C)n1cnnc1-c1cccc(-c2ncc(-c3cccc(C4CC4)c3)o2)n1 [Compound I-040] | ≤ 0.05
Cc1ccc(-c2cnc(-c3cccc(-c4nncn4C(C)C)n3)o2)c(F)c1 [Compound I-041] | ≤ 0.05
Cc1ccc(-c2cnc(-c3cccc(-c4nncn4[C@H](C)CO)n3)o2)c(F)c1 [Compound I-042] | ≤ 0.05
Cc1ccc(-c2cnc(-c3cccc(-c4nncn4[C@@H](C)CO)n3)o2)c(F)c1 [Compound I-043] | 0.05 to 0.5
Cc1cccc(F)c1-c1cnc(-c2cccc(-c3nncn3C(C)C)n2)o1 [Compound I-044] | 0.05 to 0.5
CC(C)n1cnnc1-c1cccc(-c2ncc(-c3ccc(C(C)(C)C)cc3F)o2)n1 [Compound I-045] | 0.05 to 0.5
CC(C)n1cnnc1-c1cccc(-c2ncc(-c3ccc(F)cc3F)o2)n1 [Compound I-049] | 0.05 to 0.5
CC(C)n1cnnc1-c1cccc(-c2ncc(-c3c(F)cccc3F)o2)n1 [Compound I-050] | ≤ 0.05
C[C@H](CO)n1cnnc1-c1cccc(-c2ncc(-c3c(F)cccc3F)o2)n1 [Compound I-051] | ≤ 0.05
Cc1cc(F)c(-c2cnc(-c3cccc(-c4nncn4[C@H](C)CO)n3)o2)c(F)c1 [Compound I-052] | ≤ 0.05
